According to PMC11078990, “Identification and characterization of small molecule inhibitors of the LINE-1 retrotransposon endonuclease” (Nature Communications, 2024):
Where “and” joins values, the source holds several entries; their conditions need not be identical. Equal values may be shown once. Read-outs that look alike come from different tables or passages of the source.

Experiments:
[1] = biological target: L1 EN (LINE-1 retrotransposon endonuclease domain) (Homo sapiens, UniProt O00370, N5T); test: Fluorescent oligonucleotide EN nicking activity assay; assay type: biochemical
[2] = system: DNA fragmentation (comet tail length) in HeLa Tet-On cells expressing EN domain; test: Neutral comet assay, EN domain-only constructs; assay type: cell-based, human
HeLa Tet-On cells = conditions: human
APE1 = biological target: T1, APE1 (Homo sapiens, UniProt P27695); test: APE1 fluorescent oligonucleotide activity assay (abasic site substrate); assay type: biochemical; conditions: for activity at 25 µM: read-out: APE1 activity (%)
T1 construct: purchased New England Biolabs (NEB) M0282S

L1 retrotransposition = test: HeLa dual-luciferase L1 retrotransposition assay; assay type: cell-based, human
[3] = system: substrate oligonucleotide used in the EN activity assay; assay type: binding; parameters: key to Binding Detected? (Y/N): Binding Detected? (Y/N); Binding Detected? (Y/N)
[4] = read-out: EN activity, percent of no inhibitor control

L1 EN (LINE-1 retrotransposon endonuclease domain), sequence (O00370 1-239 N5T): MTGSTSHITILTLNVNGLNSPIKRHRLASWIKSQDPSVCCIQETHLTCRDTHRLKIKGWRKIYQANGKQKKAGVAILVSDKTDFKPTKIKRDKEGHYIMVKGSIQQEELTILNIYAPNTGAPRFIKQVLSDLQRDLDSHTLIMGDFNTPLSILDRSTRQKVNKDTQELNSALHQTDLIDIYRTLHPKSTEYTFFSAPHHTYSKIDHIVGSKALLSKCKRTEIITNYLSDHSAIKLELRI

SMILES: O=C(CCCCCCCCCCC(=O)Nc1cccc([N+](=O)[O-])c1)Nc1cccc([N+](=O)[O-])c1 [AD11]
- EN activity, percent of no inhibitor control ([1]; 0.1 µM): 84.764% and 74.2098%
- EN activity, percent of no inhibitor control ([1]; 0.5 µM): 87.7394% and 79.0744%
- EN activity, percent of no inhibitor control ([1]; 1 µM): 78.4622% and 83.3471%
- EN activity, percent of no inhibitor control ([1]; 5 µM): 48.2874% and 49.6964%
- EN activity, percent of no inhibitor control ([1]; 25 µM): 8.361% and 7.932%
- EN activity, percent of no inhibitor control ([1]; 50 µM): 2.144% and 3.212%
- EN activity, percent of no inhibitor control ([1]; 100 µM): 0.8407% and 0.78% and 1.633%
- remaining activity at 0.1 µM [1, 4]: 87.2%
- remaining activity at 0.5 µM [1, 4]: 73.3%
- remaining activity at 1 µM [1, 4]: 78.1%
- remaining activity at 5 µM [1, 4]: 54.9%
- remaining activity at 25 µM [1, 4]: 6.58%
- remaining activity at 50 µM [1, 4]: 2.44%
- remaining activity at […] [1, 4]: 65.8%
- Nuclei comet tail length, average (WT = 1) [2]: 0.8117
- PrestoBlue (viability), average (HeLa Tet-On cells): 15.84
- APE1 percent activity, Replicate 1 (APE1): 77.2032%
- APE1 percent activity, Replicate 2 (APE1): 89.204%
- APE1 percent activity, Replicate 3 (APE1): 71.7475%
- APE1 percent activity, average (APE1): 79.3849%
- activity at 25 µM (APE1): 79.4 ± 8.9%
- L1 retrotransposition, average (L1 retrotransposition): 2.364 and 2.4307 and 2.013 and 1.968 and 2.0024 and 1.896 and 1.695 and 1.484
- Luciferase (retrotransposition), average (L1 retrotransposition): 3.993
- Luciferase (retrotransposition), replicates (L1 retrotransposition): 4.575 and 4.225 and 3.621 and 3.549
- Binding Detected? (Y/N) [3]: N

SMILES: Nn1cnn2c(SCC(=O)Nc3nnc(SCC(=O)Nc4ccc(S(N)(=O)=O)cc4)s3)nnc12 [AD29]
- EN activity, percent of no inhibitor control ([1]; [Inhibitor] 0.5 μM, technical replicates 1-3, Fig. 2b source data, 0.5 µM): 96.7352% and 105.013%
- remaining activity at 0.5 µM ([1]; [Inhibitor] 0.5 μM, technical replicates 1-3, Fig. 2b source data, read-out: EN activity, percent of no inhibitor control): 97.3%
- EN activity, percent of no inhibitor control ([1]; [Inhibitor] 5 μM, technical replicates 1-3, Fig. 2b source data, 5 µM): 89.8647% and 119.947% and 95.1949%
- EN activity, percent of no inhibitor control ([1]; [Inhibitor] 10 μM, technical replicates 1-3, Fig. 2b source data, 10 µM): 90.2289% and 93.2039%
- remaining activity at 10 µM ([1]; [Inhibitor] 10 μM, technical replicates 1-3, Fig. 2b source data, read-out: EN activity, percent of no inhibitor control): 89.2%
- EN activity, percent of no inhibitor control ([1]; [Inhibitor] 25 μM, technical replicates 1-3, Fig. 2b source data, 25 µM): 63.7726% and 70.2623%
- remaining activity at 25 µM ([1]; [Inhibitor] 25 μM, technical replicates 1-3, Fig. 2b source data, read-out: EN activity, percent of no inhibitor control): 64.2%
- EN activity, percent of no inhibitor control ([1]; [Inhibitor] 50 μM, technical replicates 1-3, Fig. 2b source data, 50 µM): 34.0986% and 27.5313%
- remaining activity at 50 µM ([1]; [Inhibitor] 50 μM, technical replicates 1-3, Fig. 2b source data, read-out: EN activity, percent of no inhibitor control): 24.6%
- EN activity, percent of no inhibitor control ([1]; [Inhibitor] 100 μM, technical replicates 1-3, Fig. 2b source data, 100 µM): 8.595% and 8.689%
- remaining activity at 100 µM ([1]; [Inhibitor] 100 μM, technical replicates 1-3, Fig. 2b source data, read-out: EN activity, percent of no inhibitor control): 5.53%
- EN activity, percent of no inhibitor control ([1]; [Inhibitor] 250 μM, technical replicates 1-3, Fig. 2b source data, 250 µM): 1.937% and 2.743%
- remaining activity at 250 µM ([1]; [Inhibitor] 250 μM, technical replicates 1-3, Fig. 2b source data, read-out: EN activity, percent of no inhibitor control): 2.22%
- EN activity, percent of no inhibitor control ([1]; [Inhibitor] 500 μM, technical replicates 1-3, Fig. 2b source data, 500 µM): 1.591% and 1.804% and 0.7296%
- Nuclei comet tail length, average (WT = 1) ([2]; 50 μM inhibitor, EN domain-only construct, neutral comet assay, normalised to WT): 0.4772
- PrestoBlue (viability), average (HeLa Tet-On cells; 48 h, 50 μM): 15.21
- APE1 percent activity, Replicate 1 (APE1; compound at 25 μM, Replicate 1): 83.829%
- APE1 percent activity, Replicate 2 (APE1; compound at 25 μM, Replicate 2): 79.0708%
- APE1 percent activity, Replicate 3 (APE1; compound at 25 μM, Replicate 3): 80.6497%
- APE1 percent activity, average (APE1; compound at 25 μM, average of 3 replicates): 81.1831%
- activity at 25 µM (APE1; inhibitors at 25 μM, relative to 0 μM inhibitor control, mean ± s.d., 3 independent experiments): 81.2 ± 2.4%
- Luciferase (retrotransposition), average (L1 retrotransposition; Figure 4a Graph 4, 50μM, 0μM average 3.426): 2.638
- Luciferase (retrotransposition), replicates (L1 retrotransposition; Figure 4a Graph 4, 50μM, Replicates 1-4, 0μM average 3.426): 2.47 and 2.591 and 2.484 and 3.007
- Binding Detected? (Y/N) [3]: N

SMILES: O=C(NCCCCCCNC(=O)Nc1cccc([N+](=O)[O-])c1)Nc1cccc([N+](=O)[O-])c1 [AD32]
- EN activity, percent of no inhibitor control ([1]; 1 µM): 89.1778% and 95.2749%
- EN activity, percent of no inhibitor control ([1]; 5 µM): 106.426% and 105.894%
- EN activity, percent of no inhibitor control ([1]; 20 µM): 107.498% and 97.7763% and 80.1287%
- EN activity, percent of no inhibitor control ([1]; 50 µM): 115.028% and 130.021% and 99.6138%
- EN activity, percent of no inhibitor control ([1]; 100 µM): 108.576% and 99.1955%
- EN activity, percent of no inhibitor control ([1]; 250 µM): 76.4578% and 67.7464%
- EN activity, percent of no inhibitor control ([1]; 500 µM): 42.369% and 27.0684%
- EN activity, percent of no inhibitor control ([1]; 750 µM): 20.3358% and 21.9713%
- EN activity, percent of no inhibitor control ([1]; 1000 µM): 5.092% and 3.166% and 2.499%
- remaining activity at 1 µM [1, 4]: 93.7%
- remaining activity at 5 µM [1, 4]: 103%
- remaining activity at 100 µM [1, 4]: 106%
- remaining activity at 250 µM [1, 4]: 71.9%
- remaining activity at 500 µM [1, 4]: 46.5%
- remaining activity at 750 µM [1, 4]: 20.5%
- Nuclei comet tail length, average (WT = 1) [2]: 0.6103
- PrestoBlue (viability), average (HeLa Tet-On cells): 14.98
- APE1 percent activity, Replicate 1 (APE1): 105.807%
- APE1 percent activity, Replicate 2 (APE1): 106.706%
- APE1 percent activity, Replicate 3 (APE1): 111.118%
- APE1 percent activity, average (APE1): 107.877%
- Percent APE1 activity, average (APE1): 120.4%
- Percent APE1 activity, replicates (APE1): 115.512% and 123.038% and 122.705%
- activity at 25 µM (APE1): 108 ± 2.8%
- Effect on L1 retrotransposition (L1 retrotransposition): some activity in the retrotransposition assay
- Luciferase (retrotransposition), average (L1 retrotransposition): 1.01
- Luciferase (retrotransposition), replicates (L1 retrotransposition): 1.2931 and 0.8621 and 0.8883 and 0.9964
- Binding Detected? (Y/N) [3]: N
